These compounds were tested on Plutella xylostella (assay: Plutella xylostella, leaf dip method). Conditions: foliar, cabbage leaf dip, second instar larvae, 72 h after release, dead + moribund vs untreated control, read-out: percent mortality.
Assay type: in vivo
Protocol: The leaf dip method was used for testing, wherein the required quantity of the compound was weighed and dissolved in a tube containing solvent solution. The tube was put on a vortex at 2000 rpm for 90 min for proper mixing, then diluted with 0.01% Triton-X solution to get the desired test concentration. Cabbage leaves were dipped in the compound solution for 10 seconds, shade dried for 20 min and then transferred into the cells of bioassay trays. A single second instar larva was released into each cell and the tray was covered with a lid. The bio-assay trays were then kept under laboratory conditions at a temperature of 25° C. and a relative humidity of 70%. Observations on dead, moribund and alive larvae were recorded 72 h after the release. Percent mortality was calculated by combining dead and moribund larvae and comparing the result to the one of the untreated control.

Q: With `CCS(=O)(=O)c1cc(N(C)C)cnc1-c1ccn2nc(C(F)(F)F)cc2n1` [Compound 230, 5-(ethylsulfonyl)-N,N-dimethyl-6-(2-(trifluoromethyl)pyrazolo[1,5-a]pyrimidin-5-yl)pyridin-3-amine] as the compound, how does the mortality at 300 ppm read?
A: ≥ 70%

Q: How did the mortality at 300 ppm turn out when `CCS(=O)(=O)c1cc(-c2cc(C(F)(F)F)nn2C)cnc1-c1ncc2nc(C(F)(F)F)n(C)c2n1` [Compound 121, 2-(3-(ethylsulfonyl)-5-(1-methyl-3-(trifluoromethyl)-1H-pyrazol-5-yl)pyridin-2-yl)-9-methyl-8-(trifluoromethyl)-9H-purine] was run?
A: ≥ 70%

Q: `CCS(=O)(=O)c1cc(-c2ccc(C(F)(F)F)cc2)cnc1-c1ncc2nc(C(F)(F)F)n(C)c2n1` [Compound 129, 2-(3-(ethylsulfonyl)-5-(4-(trifluoromethyl)phenyl)pyridin-2-yl)-9-methyl-8-(trifluoromethyl)-9H-purine] was tested. Which mortality at 300 ppm did it give?
A: ≥ 70%

Q: For `CC#Cc1ccc(S(=O)(=O)CC)c(-c2ccn3nc(C(F)(F)F)cc3n2)n1` [Compound 173, 5-(3-(ethylsulfonyl)-6-(prop-1-yn-1-yl)pyridin-2-yl)-2-(trifluoromethyl)pyrazolo[1,5-a]pyrimidine], which mortality at 300 ppm is on record?
A: ≥ 70%

Q: Which mortality at 300 ppm does the source give for `CCS(=O)(=O)c1ccc(-c2ccccc2)nc1-c1ccn2nc(C(F)(F)F)cc2n1` [Compound 15, 5-(3-(ethylsulfonyl)-6-phenylpyridin-2-yl)-2-(trifluoromethyl)pyrazolo[1,5-a]pyrimidine] here?
A: ≥ 70%

Q: Which mortality at 300 ppm does the source give for `CC#Cc1cnc(-c2ccn3nc(C(F)(F)F)cc3n2)c(S(=O)(=O)CC)c1` [Compound 178, 5-(3-(ethylsulfonyl)-5-(prop-1-yn-1-yl)pyridin-2-yl)-2-(trifluoromethyl)pyrazolo[1,5-a]pyrimidine] here?
A: ≥ 70%

Q: For `CCS(=O)(=O)c1cc(-c2cc(C(F)(F)F)nn2C)cnc1-c1ccn2nc(C(F)(F)F)cc2n1` [Compound 78, 5-(3-(ethylsulfonyl)-5-(1-methyl-3-(trifluoromethyl)-1H-pyrazol-5-yl)pyridin-2-yl)-2-(trifluoromethyl)pyrazolo[1,5-a]pyrimidine], which mortality at 300 ppm is on record?
A: ≥ 70%

Q: How did the mortality at 300 ppm turn out when `CCSc1cc(C2CC2)cnc1-c1ccn2nc(C(F)(F)F)cc2n1` [Compound 189, 5-(5-cyclopropyl-3-(ethylthio)pyridin-2-yl)-2-(trifluoromethyl)pyrazolo[1,5-a]pyrimidine] was run?
A: ≥ 70%

Q: For `CCS(=O)(=O)c1ccc(NC(C)C)nc1-c1ccn2nc(C(F)(F)F)cc2n1` [Compound 241, 5-(ethylsulfonyl)-N-isopropyl-6-(2-(trifluoromethyl)pyrazolo[1,5-a]pyrimidin-5-yl)pyridin-2-amine], which mortality at 300 ppm is on record?
A: ≥ 70%

Q: With `CCS(=O)(=O)c1cc(OCC2CC2)cnc1-c1ccn2nc(C(F)(F)F)nc2n1` [Compound 161, 5-(5-(cyclopropylmethoxy)-3-(ethylsulfonyl)pyridin-2-yl)-2-(trifluoromethyl)-[1,2,4]triazolo[1,5-a]pyrimidine] as the compound, how does the mortality at 300 ppm read?
A: ≥ 70%

Q: Which mortality at 300 ppm does the source give for `CCS(=O)(=O)c1cc(-c2ccc(Cl)c(F)c2)cnc1-c1ccn2nc(C(F)(F)F)nc2n1` [Compound 162, 5-(5-(4-chloro-3-fluorophenyl)-3-(ethylsulfonyl)pyridin-2-yl)-2-(trifluoromethyl)-[1,2,4]triazolo[1,5-a]pyrimidine] here?
A: ≥ 70%

Q: With `CCS(=O)(=O)c1cc(-n2cnc(C)n2)cnc1-c1ccn2nc(C(F)(F)F)cc2n1` [Compound 69, 5-(3-(ethylsulfonyl)-5-(3-methyl-1H-1,2,4-triazol-1-yl)pyridin-2-yl)-2-(trifluoromethyl)pyrazolo[1,5-a]pyrimidine] as the compound, how does the mortality at 300 ppm read?
A: ≥ 70%

Q: `CCS(=O)(=O)c1cc(-n2cc(Br)cn2)cnc1-c1ccn2nc(C(F)(F)F)cc2n1` [Compound 88, 5-(5-(4-bromo-1H-pyrazol-1-yl)-3-(ethylsulfonyl)pyridin-2-yl)-2-(trifluoromethyl)pyrazolo[1,5-a]pyrimidine] was tested. Which mortality at 300 ppm did it give?
A: ≥ 70%

Q: With `CCS(=O)(=O)c1cc(-c2ccc(OC(F)(F)F)cc2)cnc1-c1ncc2nc(C(F)(F)F)n(C)c2n1` [Compound 119, 2-(3-(ethylsulfonyl)-5-(4-(trifluoromethoxy)phenyl)pyridin-2-yl)-9-methyl-8-(trifluoromethyl)-9H-purine] as the compound, how does the mortality at 300 ppm read?
A: ≥ 70%

Q: `CCS(=O)(=O)c1cc(-c2cc(Cl)cc(Cl)c2)cnc1-c1ccn2nc(C(F)(F)F)nc2n1` [Compound 102, 5-(5-(3,5-dichlorophenyl)-3-(ethylsulfonyl)pyridin-2-yl)-2-(trifluoromethyl)-[1,2,4]triazolo[1,5-a]pyrimidine] was tested. Which mortality at 300 ppm did it give?
A: ≥ 70%

Q: With `CCS(=O)(=O)c1cc(NC)cnc1-c1ccn2nc(C(F)(F)F)cc2n1` [Compound 218, 5-(ethylsulfonyl)-N-methyl-6-(2-(trifluoromethyl)pyrazolo[1,5-a]pyrimidin-5-yl)pyridin-3-amine] as the compound, how does the mortality at 300 ppm read?
A: ≥ 70%

Q: For `CCS(=O)(=O)c1cc(-c2ccc(Cl)c(F)c2)cnc1-c1ncc2nc(C(F)(F)F)n(C)c2n1` [Compound 124, 2-(5-(4-chloro-3-fluorophenyl)-3-(ethylsulfonyl)pyridin-2-yl)-9-methyl-8-(trifluoromethyl)-9H-purine], which mortality at 300 ppm is on record?
A: ≥ 70%

Q: Which mortality at 300 ppm does the source give for `CCSc1cc(-n2cncn2)cnc1-c1ccn2nc(C(F)(F)F)cc2n1` [Compound 32, 5-(3-(ethylthio)-5-(1H-1,2,4-triazol-1-yl)pyridin-2-yl)-2-(trifluoromethyl)pyrazolo[1,5-a]pyrimidine] here?
A: ≥ 70%

Q: For `CCS(=O)(=O)c1cc(N)cnc1-c1ccn2nc(C(F)(F)F)cc2n1` [Compound 223, 5-(ethylsulfonyl)-6-(2-(trifluoromethyl)pyrazolo[1,5-a]pyrimidin-5-yl)pyridin-3-amine], which mortality at 300 ppm is on record?
A: ≥ 70%

Q: With `CCS(=O)(=O)c1ccc(OC(C)C)nc1-c1ccn2nc(C(F)(F)F)cc2n1` [Compound 240, 5-(3-(ethylsulfonyl)-6-isopropoxypyridin-2-yl)-2-(trifluoromethyl)pyrazolo[1,5-a]pyrimidine] as the compound, how does the mortality at 300 ppm read?
A: ≥ 70%

Q: With `CCS(=O)(=O)c1cc(-c2cnn(C)c2)cnc1-c1ccn2nc(C(F)(F)F)cc2n1` [Compound 97, 5-(3-(ethylsulfonyl)-5-(1-methyl-1H-pyrazol-4-yl)pyridin-2-yl)-2-(trifluoromethyl)pyrazolo[1,5-a]pyrimidine] as the compound, how does the mortality at 300 ppm read?
A: ≥ 70%

Q: `C=Cc1cnc(-c2ccn3nc(C(F)(F)F)cc3n2)c(S(=O)(=O)CC)c1` [Compound 212, 5-(3-(ethylsulfonyl)-5-vinylpyridin-2-yl)-2-(trifluoromethyl)pyrazolo[1,5-a]pyrimidine] was tested. Which mortality at 300 ppm did it give?
A: ≥ 70%

Q: For `CCS(=O)(=O)c1ccc(-n2ccc(F)n2)nc1-c1ccn2nc(C(F)(F)F)cc2n1` [Compound 140, 5-(3-(ethylsulfonyl)-6-(3-fluoro-1H-pyrazol-1-yl)pyridin-2-yl)-2-(trifluoromethyl)pyrazolo[1,5-a]pyrimidine], which mortality at 300 ppm is on record?
A: ≥ 70%

Q: For `CCS(=O)(=O)c1ccc(C=C(C)C)nc1-c1ccn2nc(C(F)(F)F)cc2n1` [Compound 210, 5-(3-(ethylsulfonyl)-6-(2-methylprop-1-en-1-yl)pyridin-2-yl)-2-(trifluoromethyl)pyrazolo[1,5-a]pyrimidine], which mortality at 300 ppm is on record?
A: ≥ 70%

Q: Which mortality at 300 ppm does the source give for `CCS(=O)(=O)c1cc(-c2nccs2)cnc1-c1ccn2nc(C(F)(F)F)nc2n1` [Compound 132, 2-(5-(ethylsulfonyl)-6-(2-(trifluoromethyl)-[1,2,4]triazolo[1,5-a]pyrimidin-5-yl)pyridin-3-yl)thiazole] here?
A: ≥ 70%

Source: patent US12514251B2, “Fused heterocyclic compounds and their use as pest control agents” (priority 2020, dated 2026)
